Legend:
[1] = tested on: HUVECs; assay: Nitric oxide production in endothelial cells (DAF 2-DA fluorescence); type: cell-based, human; settings: HUVECs incubated 24 hours
Procedure: c. HGF and compounds of the invention stimulate nitric oxide production in endothelial cells. HUVECs are incubated with either vehicle, HGF/SF, instant compounds, or SNAP for 24 hours, loaded with the nitric oxide-sensitive fluorescence indicator DAF 2-DA and imaged under a laser scanning confocal microscope.

[2] = tested on: MDCK cells; assay: Anti-apoptotic activity in cultured cell lines (adriamycin); type: cell-based; settings: pretreatment; HUVEC and MDCK cell lines
Source text: a. HGF/SF and instant compounds have significant anti-apoptotic activity in cultured cell lines.

[3] = tested on: LX2 cells; assay: Antifibrotic activity in hepatic stellate cells; type: cell-based, human; settings: serum starved (activated) LX2 cells
Source text: a. Antifibrotic Activity in Hepatic Stellate Cells.

Compound | nitric oxide production (DAF 2-DA fluorescence) [1] | cell viability [2] | collagen I mRNA expression [3]
CC(=O)N[C@@H](C(=O)O)C(C)(C)SN=O (racemic) [SNAP, reference compound] | significant increase in fluorescence |  | 
HGF/SF: Scatter factor, also known as hepatocyte growth factor; pleiotropic growth factor, heparin-binding heterodimeric protein | significant increase in fluorescence | significantly improves the cell viability | decrease in collagen I mRNA expression

From US20130190376A1, “METHODS OF USE OF SMALL MOLECULE MODULATORS OF HEPATOCYTE GROWTH FACTOR (SCATTER FACTOR) ACTIVITY” (priority 2010, published 2013)
